Test results: US4731109A, “Herbicidal 2-haloacetanilides” (Monsanto Company, priority 1982, dated 1988)
Where two headings read alike, the source gives them in different places.

What was measured:
Type in all cases: in vivo
purple nutsedge = experiment: Greenhouse pre-emergence GR15/GR85 selectivity test; details: for GR85 Rate / selectivity factor (GR15/GR85): Table XV; for selectivity factor (GR15/GR85): in rape
From the text: (§1) A good grade of top soil is placed in aluminum pans and compacted to a depth of three-eighths to one-half inch from the top of the pan. On the top of the soil is placed a number of seeds or vegetative propagules of various plant species. The soil required to level fill the pans after seeding or adding vegetative propagules is weighed into a pan. The soil and a known amount of the active ingredient applied in a solvent or as a wettable powder suspension are thoroughly mixed, and used to cover the prepared pans. After treatment, the pans are given an initial overhead irrigation of eater, equivalent to one-fourth inch (0.64 cm) rainfall, then watered by subirrigation as need to give adequate moisture for germination and growth. As an alternative procedure, the overhead irrigation may be omitted. Observations are made about 2-3 weeks after seeding and treatment.
(§2) In the discussion and tables of data below, reference is made to herbicide application rates symbolized as "GR15 " and "GR85 "; these rates are given in kilograms per hectare (kg/ha) which are convertible into pounds per acre (lbs/A) by dividing the kg/ha rate by 1.12.
(§3) A further guide to the effectiveness of a chemical as a selective herbicide is the "selectivity factor" ("SF") for a herbicide in given crops and weeds. The selectivity factor is a measure of the relative degree of crop safety and weed injury and is expressed in terms of the GR15 /GR85 ratio, i.e., the GR15 rate for the crop divided by the GR85 rate for the weed, both rates in kg/ha (lb/A). In the tables below, selectivity factors are shown in parenthesis following the GR85 rate for each weed; the symbol "NS" indicates "non-selective". Marginal or undetermined selectivity is indicated by a dash (--).
(§4) Additionally, pre-emergence herbicidal data from other tests have established that compounds according to this invention also selectively suppress quackgrass, yellow nutsedge and/or other weeds in one or more of the crops cotton, peanuts, bush beans and/or rape. For example, in Table VI are presented data showing the herbicidal selectivity of the compounds of Examples 1 and 2 against quackgrass in rape and snap beans. Unless otherwise noted; greenhouse tests in Table VI and in other tables below involved herbicide treatments by soil incorporation and an initial overhead irrigation followed by subirrigation as described above.
In other greenhouse tests, compounds according to this invention have shown selective control of a variety of annual and perennial weeds in various crops. As further illustrative, the compound of Example 1 selectively controlled purple nutsedge in both corn nd soybeans, the respective crop/weed GR15 /GR85 ratios (expressed in kg/ha) being 0.67/0.25 (S.F.=2.7) in corn and 1.1/0.25 (S.F.=4.5) in soybeans. The compound of Example 8 has shown selective control of yellow nutsedge and quackgrass in corn and soybeans. The respective crop/yellownutsedge GR15 /GR85 ratios being >2.2/0.95 (S.F.=2.5) in corn; 2.2/0.5 (SF=4.5) in soybeans and the respective GR15 /GR85 ratios for both corn and soybeans in quackgrass being >2.2/0.5 (S.F.=4.5). In a test against yellow nutsedge in cotton, the GR15 /GR85 ratio (average of two replicates) was 2.0/0.95 (S.F.=2).
In another greenhouse test, the compounds of Examples 3-5, 9 and 10 were tested for their herbicidal efficacy against a variety of resistant annual and perennial weeds in rape.

cotton = experiment: as above
From the text: as §1, §2, §3, §4
In one multi-crop test in the greenhouse, the compounds of Examples 1, 9, and 10 were tested against yellow nutsedge in cotton, soybeans, corn and rice; each compound was non-selective with respect to yellow nutsedge in rice. However, markedly high selectivities for yellow nutsedge in cotton, soybeans and corn were shown for each of the compounds in the test; the respective GR15 and GR85 rates for these compounds are shown in Table XII selectivity factors are shown in parenthesis after each crop.

redroot pigweed = experiment: as above; details: Table XV; for selectivity factor (GR15/GR85): in rape
Method in brief: (§5)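 Pre-emergence soil-incorporation test: seeded pans were covered with topsoil mixed with active ingredient (in solvent or as wettable powder), overhead-irrigated (0.64 cm) or not, then subirrigated. Plants were scored about 2-3 weeks after treatment. GR15/GR85 rates are in kg/ha, and selectivity factor is crop GR15 divided by weed GR85.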

prickly sida = experiment: as above; details: Table XV
Method in brief: as §5

common purslane = experiment: as above; details: Table XV
Method in brief: as §5

common ragweed = experiment: as above; details: Table XV; for selectivity factor (GR15/GR85): in rape
Method in brief: as §5

Barnyardgrass = experiment: Resistance to leaching and resulting herbicidal efficacy; details: for inhibition at 140 g/ha / inhibition at 560 g/ha / inhibition at 2200 g/ha: Echinochloa crus-galli, read-out: Percent Inhibition
Protocol: Laboratory tests were conducted to determine the resistance of herbicides according to this invention to leaching into the soil and resulting herbicidal efficacy. […] The pots containing the treated soil were subjected to leaching by placing on a turntable which rotated under two nozzle tips of a water container calibrated to deliver one inch (2.5 cm) of water per hour simulating rainfall. Leaching rates were adjusted by varying the amount of time on the turntable. Water was delivered to the soil in the pots and allowed to percolate through the filter paper and drainage holes. The pots were then allowed to sit for three days at ambient room temperature. The treated soil in the pots was then removed, crumbled and placed as a surface layer on top of other pots containing the above soils seeded with barnyardgrass seeds. The pots were then placed on greenhouse benches, sub-irrigated and allowed to grow for 2-3 weeks. Visual ratings of percent growth inhibition compared to control (untreated) pots and fresh weights for barnyardgrass were recorded; the data from the control represents six replications and that for the test compounds three replications; test data are shown in Table XVIII.

[1] = Drummer silt clay, 0.14 Kg/Ha, rain 0 cm
[2] = Drummer silt clay, 0.14 Kg/Ha, rain 1.27 cm
[3] = Drummer silt clay, 0.14 Kg/Ha, rain 5.08 cm
[4] = Drummer silt clay, 0.56 Kg/Ha, rain 0 cm
[5] = Drummer silt clay, 0.56 Kg/Ha, rain 1.27 cm
[6] = Drummer silt clay, 0.56 Kg/Ha, rain 5.08 cm
[7] = Drummer silt clay, 0.56 Kg/Ha, rain 10.16 cm
[8] = Drummer silt clay, 2.2 Kg/Ha, rain 0 cm
[9] = Drummer silt clay, 2.2 Kg/Ha, rain 1.27 cm
[10] = Drummer silt clay, 2.2 Kg/Ha, rain 5.08 cm
[11] = Drummer silt clay, 2.2 Kg/Ha, rain 10.16 cm
[12] = Ray silt loam, 0.14 Kg/Ha, rain 0 cm
[13] = Ray silt loam, 0.14 Kg/Ha, rain 1.27 cm
[14] = Ray silt loam, 0.14 Kg/Ha, rain 5.08 cm
[15] = Ray silt loam, 0.56 Kg/Ha, rain 0 cm
[16] = Ray silt loam, 0.56 Kg/Ha, rain 1.27 cm
[17] = Ray silt loam, 0.56 Kg/Ha, rain 5.08 cm
[18] = Ray silt loam, 0.56 Kg/Ha, rain 10.16 cm
[19] = Ray silt loam, 2.2 Kg/Ha, rain 0 cm
[20] = Ray silt loam, 2.2 Kg/Ha, rain 1.27 cm
[21] = Ray silt loam, 2.2 Kg/Ha, rain 5.08 cm
[22] = Ray silt loam, 2.2 Kg/Ha, rain 10.16 cm
[23] = Ray silt loam, 0.14 Kg/Ha, rain 10.16 cm
[24] = Ray silt loam, 0.14 Kg/Ha, rain 10.61 cm

CCOCN(C(=O)CCl)c1c(CC)cccc1C(F)(F)F [Example 9, N--(ethoxymethyl)-2'-trifluoromethyl-6'-ethyl-2-chloroacetanilide]
GR85 Rate (purple nutsedge): 0.19 Kg/Ha | selectivity factor (GR15/GR85) (purple nutsedge): 5.2 | GR15 (cotton; Table XII): 2.5 Kg/Ha | GR15 (cotton; cotton/yellow nutsedge): 0.7 kg/ha | GR85 Rate (redroot pigweed): 0.70 Kg/Ha | selectivity factor (GR15/GR85) (redroot pigweed): 1.4 | GR85 Rate (prickly sida): > 1.12 Kg/Ha | selectivity factor (GR15/GR85) (prickly sida; in rape): NS (non-selective) | GR85 Rate (common purslane): 0.78 Kg/Ha | selectivity factor (GR15/GR85) (common purslane; in rape): 1.3 | GR85 Rate (common ragweed): > 1.12 Kg/Ha | selectivity factor (GR15/GR85) (common ragweed): NS (non-selective)

CCOCN(C(=O)CCl)c1c(C)cccc1C(F)(F)F [Example 1, N-(ethoxymethyl)-2'-trifluoromethyl-6'-methyl-2-chloroacetanilide]
GR85 (purple nutsedge; in corn): 0.25 kg/ha | S.F. (GR15/GR85) (purple nutsedge; in corn): 2.7 | GR85 (purple nutsedge; in soybeans): 0.25 kg/ha | S.F. (GR15/GR85) (purple nutsedge; in soybeans): 4.5 | GR15 (cotton; Table XII): 2.0 Kg/Ha | inhibition at 140 g/ha (Barnyardgrass; [1]): 100% | inhibition at 140 g/ha (Barnyardgrass; [2]): 97% | inhibition at 140 g/ha (Barnyardgrass; [3]): 95% | inhibition at 140 g/ha (Barnyardgrass; Drummer silt clay, 0.14 Kg/Ha, rain 10.16 cm): 20% | inhibition at 560 g/ha (Barnyardgrass; [4]): 100% | inhibition at 560 g/ha (Barnyardgrass; [5]): 100% | inhibition at 560 g/ha (Barnyardgrass; [6]): 100% | inhibition at 560 g/ha (Barnyardgrass; [7]): 100% | inhibition at 2200 g/ha (Barnyardgrass; [8]): 100% | inhibition at 2200 g/ha (Barnyardgrass; [9]): 100% | inhibition at 2200 g/ha (Barnyardgrass; [10]): 100% | inhibition at 2200 g/ha (Barnyardgrass; [11]): 100% | inhibition at 140 g/ha (Barnyardgrass; [12]): 95% | inhibition at 140 g/ha (Barnyardgrass; [13]): 96% | inhibition at 140 g/ha (Barnyardgrass; [14]): 58% | inhibition at 560 g/ha (Barnyardgrass; [15]): 100% | inhibition at 560 g/ha (Barnyardgrass; [16]): 100% | inhibition at 560 g/ha (Barnyardgrass; [17]): 70% | inhibition at 560 g/ha (Barnyardgrass; [18]): 33% | inhibition at 2200 g/ha (Barnyardgrass; [19]): 100% | inhibition at 2200 g/ha (Barnyardgrass; [20]): 100% | inhibition at 2200 g/ha (Barnyardgrass; [21]): 95% | inhibition at 2200 g/ha (Barnyardgrass; [22]): 35% | inhibition at 140 g/ha (Barnyardgrass; [23]): 20% | Fresh Weight (Barnyardgrass; [12]): 0.20 Grams | Fresh Weight (Barnyardgrass; [13]): 0.17 Grams | Fresh Weight (Barnyardgrass; [14]): 1.74 Grams | Fresh Weight (Barnyardgrass; [23]): 3.26 Grams | Fresh Weight (Barnyardgrass; [15]): 0 Grams | Fresh Weight (Barnyardgrass; [16]): 0 Grams | Fresh Weight (Barnyardgrass; [17]): 1.21 Grams | Fresh Weight (Barnyardgrass; [18]): 2.73 Grams | Fresh Weight (Barnyardgrass; [19]): 0 Grams | Fresh Weight (Barnyardgrass; [20]): 0 Grams | Fresh Weight (Barnyardgrass; [21]): 0.20 Grams | Fresh Weight (Barnyardgrass; [22]): 2.65 Grams

Cc1cccc(C(F)(F)F)c1N(COC(C)C)C(=O)CCl [Example 4, N--(isopropoxymethyl)-2'-trifluoromethyl-6'-methyl-2-chloroacetanilide]
GR85 Rate (purple nutsedge): 0.25 Kg/Ha | selectivity factor (GR15/GR85) (purple nutsedge): > 4.5 | inhibition at 140 g/ha (Barnyardgrass; [1]): 70% | inhibition at 140 g/ha (Barnyardgrass; [2]): 96% | inhibition at 140 g/ha (Barnyardgrass; [3]): 85% | inhibition at 560 g/ha (Barnyardgrass; [4]): 100% | inhibition at 560 g/ha (Barnyardgrass; [5]): 100% | inhibition at 560 g/ha (Barnyardgrass; [6]): 100% | inhibition at 560 g/ha (Barnyardgrass; [7]): 96% | inhibition at 2200 g/ha (Barnyardgrass; [8]): 100% | inhibition at 2200 g/ha (Barnyardgrass; [9]): 100% | inhibition at 2200 g/ha (Barnyardgrass; [10]): 100% | inhibition at 2200 g/ha (Barnyardgrass; [11]): 100% | inhibition at 140 g/ha (Barnyardgrass; [12]): 98% | inhibition at 140 g/ha (Barnyardgrass; [13]): 90% | inhibition at 140 g/ha (Barnyardgrass; [14]): 38% | inhibition at 140 g/ha (Barnyardgrass; [24]): 12% | inhibition at 560 g/ha (Barnyardgrass; [15]): 99% | inhibition at 560 g/ha (Barnyardgrass; [16]): 100% | inhibition at 560 g/ha (Barnyardgrass; [17]): 89% | inhibition at 560 g/ha (Barnyardgrass; [18]): 17% | inhibition at 2200 g/ha (Barnyardgrass; [19]): 100% | inhibition at 2200 g/ha (Barnyardgrass; [20]): 100% | inhibition at 2200 g/ha (Barnyardgrass; [21]): 92% | inhibition at 2200 g/ha (Barnyardgrass; [22]): 71% | inhibition at 140 g/ha (Barnyardgrass; Drummer silt clay, 0.14 Kg/Ha, rain 10.61 cm): 47% | Fresh Weight (Barnyardgrass; [12]): 0.01 Grams | Fresh Weight (Barnyardgrass; [13]): 0.41 Grams | Fresh Weight (Barnyardgrass; [14]): 2.77 Grams | Fresh Weight (Barnyardgrass; [24]): 3.62 Grams | Fresh Weight (Barnyardgrass; [15]): 0.02 Grams | Fresh Weight (Barnyardgrass; [16]): 0 Grams | Fresh Weight (Barnyardgrass; [17]): 0.44 Grams | Fresh Weight (Barnyardgrass; [18]): 3.41 Grams | Fresh Weight (Barnyardgrass; [19]): 0 Grams | Fresh Weight (Barnyardgrass; [20]): 0 Grams | Fresh Weight (Barnyardgrass; [21]): 0.31 Grams | Fresh Weight (Barnyardgrass; [22]): 1.18 Grams | GR85 Rate (redroot pigweed): 0.50 Kg/Ha | selectivity factor (GR15/GR85) (redroot pigweed): > 2.2 | GR85 Rate (prickly sida): > 1.12 Kg/Ha | GR85 Rate (common purslane): > 1.12 Kg/Ha | GR85 Rate (common ragweed): 1.03 Kg/Ha | selectivity factor (GR15/GR85) (common ragweed): > 1.1
